Values quoted from earlier work in patent US20240397942A1, “METHOD FOR PRODUCING REPELLENT OR ATTRACTANT FOR ORGANISMS, REPELLENT OR ATTRACTANT FOR ORGANISMS, AND METHOD FOR REPELLING OR ATTRACTING ORGANISMS” (Sony Group Corporation, priority 2021, published 2024).

Key:
Conditions in all cases: in vivo
Mexican bean beetles = system: Mexican bean beetles
flour beetles = system: flour beetles
[1] = system: whiteflies (infection vector of tomato yellowing gangrene virus)
[2] = system: house dust mites (indoor mites)
peach-potato aphids = system: peach-potato aphids
fruit flies = system: fruit flies
Asian tiger mosquitoes = system: Asian tiger mosquitoes
sirex woodwasps = system: sirex woodwasps
stink bugs = system: stink bugs
[3] = system: plant hoppers (rice pests)
giant assassin bugs = system: giant assassin bugs
spider mites = system: spider mites
organisms = system: organisms
malaria mosquitoes = system: malaria mosquitoes
green tea leafhoppers = system: green tea leafhoppers

C=CCCCCCCCCCCCC [1-tetradecene]
repellent effect on Mexican bean beetles (Mexican bean beetles): repellent effect | repellent effect on flour beetles (flour beetles): repellent effect

CCCCC(CC)CO (stereo not shown) [2-ethyl-1-hexanol]
attractant effect on whiteflies [1]: attractant effect

CCCCCCCCCC=O [Example 1-decanal, 1-decanal]
attractant effect on house dust mites (indoor mites) [2]: attractant effect

CCCCCC=O [Example 1-hexanal, 1-hexanal]
attractant effect on peach-potato aphids (peach-potato aphids): attractant effect

CCCCCCCC=O [Example 1-octanal, 1-octanal]
attractant effect on house dust mites (indoor mites) [2]: attractant effect

CC=O [acetaldehyde]
attractive (attractant) effect on fruit flies (fruit flies): attractant effect

CC(=O)O [acetic acid]
attractant effect on Asian tiger mosquitoes (Asian tiger mosquitoes): attractant effect

CC(=O)c1ccccc1 [acetophenone]
repellent effect on sirex woodwasps (sirex woodwasps): repellent effect | attractive effect on stink bugs (stink bugs): attractive effect | attractive effect on plant hoppers (rice pests) [3]: attractive effect | repellent effect on giant assassin bugs (giant assassin bugs): repellent effect

CC(=O)CC(C)=O [acetylacetone]
repellent effect on sirex woodwasps (sirex woodwasps): repellent effect

O=Cc1ccccc1 [benzaldehyde]
attractive (attractant) effect on fruit flies (fruit flies): attractive effect

CCCCCCCCCCCCCCCC [hexadecane]
repellent effect on spider mites (spider mites): repellent effect

C=Cc1ccccc1 [styrene]
repellent or attractant effect on organisms (organisms): no repellent or attractant effect

CCCCCCCCCCCCCC [tetradodecane]
repellent effect on malaria mosquitoes (malaria mosquitoes): repellent effect

hexadecene
repellent effect on green tea leafhoppers (green tea leafhoppers): repellent effect

xylene
repellent effect on whiteflies [1]: repellent effect
